From PubChem BioAssay (NCI)
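Assay format: 96-well plates, 48-hour exposure. Definition used: TGI = concentration required for complete inhibition of growth.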

What was measured:
Assay in all cases: DTP human tumour cell line panel, 48 h
SNB-75 CNS = tested on: SNB-75 CNS
MCF7 breast = tested on: MCF7 breast
A498 renal = tested on: A498 renal
UACC-62 melanoma = tested on: UACC-62 melanoma
UACC-257 melanoma = tested on: UACC-257 melanoma
EKVX NSCLC = tested on: EKVX NSCLC
SNB-19 CNS = tested on: SNB-19 CNS
HCT-15 colon = tested on: HCT-15 colon
NCI-H226 lung = tested on: NCI-H226 lung
MDA-N = tested on: MDA-N
HCT-116 colon = tested on: HCT-116 colon
CCRF-CEM leukemia = tested on: CCRF-CEM leukemia
SW-620 colon = tested on: SW-620 colon
NCI-H522 lung = tested on: NCI-H522 lung
RPMI-8226 leukemia = tested on: RPMI-8226 leukemia
BT-549 breast = tested on: BT-549 breast
DU-145 prostate = tested on: DU-145 prostate
PC-3 prostate = tested on: PC-3 prostate
HOP-62 NSCLC = tested on: HOP-62 NSCLC
SF-295 CNS = tested on: SF-295 CNS
SK-MEL-5 melanoma = tested on: SK-MEL-5 melanoma
KM12 colon = tested on: KM12 colon
786-0 renal = tested on: 786-0 renal
SR leukemia = tested on: SR leukemia
ACHN renal = tested on: ACHN renal
OVCAR-3 ovarian = tested on: OVCAR-3 ovarian
HT29 colon = tested on: HT29 colon
NCI-H460 lung = tested on: NCI-H460 lung
SF-539 CNS = tested on: SF-539 CNS
SN12C renal = tested on: SN12C renal
HOP-92 NSCLC = tested on: HOP-92 NSCLC
NCI-H23 lung = tested on: NCI-H23 lung
TK-10 renal = tested on: TK-10 renal
OVCAR-8 ovarian = tested on: OVCAR-8 ovarian
MOLT-4 leukemia = tested on: MOLT-4 leukemia
LOX IMVI melanoma = tested on: LOX IMVI melanoma
SK-OV-3 ovarian = tested on: SK-OV-3 ovarian
T-47D breast = tested on: T-47D breast
NCI/ADR-RES ovarian = tested on: NCI/ADR-RES ovarian
SK-MEL-28 melanoma = tested on: SK-MEL-28 melanoma
CAKI-1 renal = tested on: CAKI-1 renal
RXF 393 renal = tested on: RXF 393 renal
HCC-2998 colon = tested on: HCC-2998 colon
COLO 205 colon = tested on: COLO 205 colon
K-562 leukemia = tested on: K-562 leukemia
MDA-MB-231 breast = tested on: MDA-MB-231 breast
M14 melanoma = tested on: M14 melanoma
U251 CNS = tested on: U251 CNS
OVCAR-4 ovarian = tested on: OVCAR-4 ovarian
SF-268 CNS = tested on: SF-268 CNS
OVCAR-5 ovarian = tested on: OVCAR-5 ovarian
UO-31 renal = tested on: UO-31 renal
MDA-MB-435 = tested on: MDA-MB-435
MALME-3M melanoma = tested on: MALME-3M melanoma
A549 NSCLC = tested on: A549 NSCLC
HS 578T breast = tested on: HS 578T breast
IGROV1 ovarian = tested on: IGROV1 ovarian
SK-MEL-2 melanoma = tested on: SK-MEL-2 melanoma
HL-60(TB) leukemia = tested on: HL-60(TB) leukemia

Measured: TGI

CCOC(=O)c1c(N2CCCC2)[nH]c(=O)c(C(c2c(O)c(C(=O)OCC)c(N3CCCC3)[nH]c2=O)C(C)C)c1O
64.3 µM: MDA-MB-231 breast
96.5 µM: SNB-75 CNS
not listed: IGROV1 ovarian | SK-MEL-2 melanoma | HL-60(TB) leukemia
> 100 µM: all other assays above

COc1ccc2[nH]c3cc4c(=O)c5cc(OC)ccc5[nH]c4cc3c(=O)c2c1
36.2 µM: HL-60(TB) leukemia
67.5 µM: SNB-75 CNS
not listed: CCRF-CEM leukemia | SF-539 CNS | LOX IMVI melanoma
> 100 µM: all other assays above

CC(=O)C(N1CCCCC1)C(O)(C(F)(F)F)C(F)(F)F (configuration not stated)
not listed: HOP-62 NSCLC | SN12C renal | SF-268 CNS | SK-MEL-2 melanoma
> 100 µM: all other assays above
